Laboratory results: patent publication US20080063643A1, “Peptide Derived From Hepatitis C Virus” (priority 2003, published 2008)

Test system: peptide-specific IgG in the serum
Assay: ELISA of peptide-specific IgG in sera of HCV patients and healthy donors (Example 1)
Assay type: binding, human
Conditions: ELISA, cut-off value 1.83; for Healthy donors (n = 10) Positive n: number of 10 healthy donors with serum IgG reactive to the peptide; for HCV patients (n = 12) Positive n: number of 12 HCV patients with serum IgG reactive to the peptide; for Healthy donors (n = 10) Positive %: share of 10 healthy donors with serum IgG reactive to the peptide; for HCV patients (n = 12) Positive %: share of 12 HCV patients with serum IgG reactive to the peptide
Protocol: Synthetic peptides having an HLA-A2-binding motif or an HLA-A24-binding motif from a conserved region of HCV genotype 1b protein were used in this study (Table 1). A peptide derived from HIV having an HLA-A2-binding motif was used as a negative control. All of these peptides were purchased from a commercially supplier. The purity was analyzed by reverse-phase high-pressure liquid chromatography and found to be 90% or higher.
The level of the peptide-specific IgG in the serum was measured by ELISA. First, each peptide was dissolved in dimethyl sulfoxide (DMSO) and stored at −80° C. The peptide was diluted with 0.1 M sodium carbonate/sodium bicarbonate solution containing disuccinimidyl suberate (DSS) as a crosslinker. An ELISA plate was coated with 20 μg/well of peptide at 4° C. overnight. The wells were washed 3 times with 0.05% Tween 20/PBS (PBST), and the plate was blocked with Block Ace (registered trademark) and left overnight at 4° C. Plasma or serum samples were diluted in 1:100, 1:200 and 1:400 with 0.05% Tween 20/Block Ace, and 100 μl of each of the samples was added to each well. After the samples were incubated at 37° C. for 2 hours, the plate was washed 9 times with PBST, 100 μl of a 1:1000 diluted rabbit anti-human IgG (γ-chain specific) was added to each well, and incubated at 37° C. for 2 hours. The plate was washed 9 times with PBST, and 100 μl of 1:100 diluted mouse anti-rabbit IgG conjugated to a horseradish peroxidase-dextran polymer was added to each well, and then the plate was incubated at room temperature for 40 minutes. After the plate was washed, 100 μl of a tetramethylbenzidine substrate solution was added to each well. The reaction was stopped by the addition of 2.0 M phosphoric acid. The cutoff value was calculated as the mean±3 SD of the optical density values of the control obtained from the healthy donors.
The level of IgG that reacts with each of the 62 types of peptides was measured in the sera from 12 patients infected with HCV and 10 healthy donors (HDs) (Table 1).

Substance: 3 (RYAPACKPL; Hepatitis C Virus) [Peptide 3]
- Healthy donors (n = 10) Positive n: 1
- HCV patients (n = 12) Positive n: 12
- Healthy donors (n = 10) Positive %: 10%
- HCV patients (n = 12) Positive %: 100%

Substance: 5 (HYAPRPCGI; Hepatitis C Virus) [Peptide 5]
- Healthy donors (n = 10) Positive n: 0
- HCV patients (n = 12) Positive n: 0
- Healthy donors (n = 10) Positive %: 0%
- HCV patients (n = 12) Positive %: 0%

Substance: 6 (HYPCTVNFTI; Hepatitis C Virus) [Peptide 6]
- Healthy donors (n = 10) Positive n: 0
- HCV patients (n = 12) Positive n: 0
- Healthy donors (n = 10) Positive %: 0%
- HCV patients (n = 12) Positive %: 0%

Substance: 8 (SFAIKWEYVL; Hepatitis C Virus) [Peptide 8]
- Healthy donors (n = 10) Positive n: 0
- HCV patients (n = 12) Positive n: 0
- Healthy donors (n = 10) Positive %: 0%
- HCV patients (n = 12) Positive %: 0%

Substance: 9 (EYVLLLFLL; Hepatitis C Virus) [Peptide 9]
- Healthy donors (n = 10) Positive n: 0
- HCV patients (n = 12) Positive n: 0
- Healthy donors (n = 10) Positive %: 0%
- HCV patients (n = 12) Positive %: 0%

Substance: 10 (AYALYGVWPL; Hepatitis C Virus) [Peptide 10]
- Healthy donors (n = 10) Positive n: 0
- HCV patients (n = 12) Positive n: 1
- Healthy donors (n = 10) Positive %: 0%
- HCV patients (n = 12) Positive %: 8%

Substance: 11 (AYMSKAHGI; Hepatitis C Virus) [Peptide 11]
- Healthy donors (n = 10) Positive n: 0
- HCV patients (n = 12) Positive n: 6
- Healthy donors (n = 10) Positive %: 0%
- HCV patients (n = 12) Positive %: 50%

Substance: 12 (HYAPRPCGI; Hepatitis C Virus) [Peptide 12]
- Healthy donors (n = 10) Positive n: 0
- HCV patients (n = 12) Positive n: 9
- Healthy donors (n = 10) Positive %: 0%
- HCV patients (n = 12) Positive %: 75%

Substance: 13 (VYEAADMIM; Hepatitis C Virus) [Peptide 13]
- Healthy donors (n = 10) Positive n: 0
- HCV patients (n = 12) Positive n: 6
- Healthy donors (n = 10) Positive %: 0%
- HCV patients (n = 12) Positive %: 50%

Substance: 15 (LFLARLIWWL; Hepatitis C Virus) [Peptide 15]
- Healthy donors (n = 10) Positive n: 0
- HCV patients (n = 12) Positive n: 0
- Healthy donors (n = 10) Positive %: 0%
- HCV patients (n = 12) Positive %: 0%

Substance: 17 (QFKQKAIGL; Hepatitis C Virus) [Peptide 17]
- Healthy donors (n = 10) Positive n: 0
- HCV patients (n = 12) Positive n: 3
- Healthy donors (n = 10) Positive %: 0%
- HCV patients (n = 12) Positive %: 25%

Substance: 19 (HYVQMALMKL; Hepatitis C Virus) [Peptide 19]
- Healthy donors (n = 10) Positive n: 0
- HCV patients (n = 12) Positive n: 1
- Healthy donors (n = 10) Positive %: 0%
- HCV patients (n = 12) Positive %: 8%

Substance: 20 (TYVYDHLTPL; Hepatitis C Virus) [Peptide 20]
- Healthy donors (n = 10) Positive n: 0
- HCV patients (n = 12) Positive n: 0
- Healthy donors (n = 10) Positive %: 0%
- HCV patients (n = 12) Positive %: 0%

Substance: 21 (HYVQMALMKL; Hepatitis C Virus) [Peptide 21]
- Healthy donors (n = 10) Positive n: 0
- HCV patients (n = 12) Positive n: 5
- Healthy donors (n = 10) Positive %: 0%
- HCV patients (n = 12) Positive %: 42%

Substance: 22 (TYVYDHLTPL; Hepatitis C Virus) [Peptide 22]
- Healthy donors (n = 10) Positive n: 0
- HCV patients (n = 12) Positive n: 7
- Healthy donors (n = 10) Positive %: 0%
- HCV patients (n = 12) Positive %: 58%

Substance: 23 (GYGAGVAGAL; Hepatitis C Virus) [Peptide 23]
- Healthy donors (n = 10) Positive n: 0
- HCV patients (n = 12) Positive n: 2
- Healthy donors (n = 10) Positive %: 0%
- HCV patients (n = 12) Positive %: 17%

Substance: 24 (AYAAQGYKVL; Hepatitis C Virus) [Peptide 24]
- Healthy donors (n = 10) Positive n: 0
- HCV patients (n = 12) Positive n: 2
- Healthy donors (n = 10) Positive %: 0%
- HCV patients (n = 12) Positive %: 17%

Substance: 25 (VYHGAGSKTL; Hepatitis C Virus) [Peptide 25]
- Healthy donors (n = 10) Positive n: 0
- HCV patients (n = 12) Positive n: 6
- Healthy donors (n = 10) Positive %: 0%
- HCV patients (n = 12) Positive %: 50%

Substance: 26 (AYALYGVWPL; Hepatitis C Virus) [Peptide 26]
- Healthy donors (n = 10) Positive n: 0
- HCV patients (n = 12) Positive n: 2
- Healthy donors (n = 10) Positive %: 0%
- HCV patients (n = 12) Positive %: 17%

Substance: 27 (HYPCTVNFTI; Hepatitis C Virus) [Peptide 27]
- Healthy donors (n = 10) Positive n: 0
- HCV patients (n = 12) Positive n: 4
- Healthy donors (n = 10) Positive %: 0%
- HCV patients (n = 12) Positive %: 33%

Substance: 28 (YYRGLDVSVI; Hepatitis C Virus) [Peptide 28]
- Healthy donors (n = 10) Positive n: 0
- HCV patients (n = 12) Positive n: 2
- Healthy donors (n = 10) Positive %: 0%
- HCV patients (n = 12) Positive %: 17%

Substance: 29 (TFLVGLNQYL; Hepatitis C Virus) [Peptide 29]
- Healthy donors (n = 10) Positive n: 0
- HCV patients (n = 12) Positive n: 2
- Healthy donors (n = 10) Positive %: 0%
- HCV patients (n = 12) Positive %: 17%

Substance: 30 (VFVGLILLTL; Hepatitis C Virus) [Peptide 30]
- Healthy donors (n = 10) Positive n: 0
- HCV patients (n = 12) Positive n: 4
- Healthy donors (n = 10) Positive %: 0%
- HCV patients (n = 12) Positive %: 33%

Substance: 32 (IFLLALLSCL; Hepatitis C Virus) [Peptide 32]
- Healthy donors (n = 10) Positive n: 0
- HCV patients (n = 12) Positive n: 7
- Healthy donors (n = 10) Positive %: 0%
- HCV patients (n = 12) Positive %: 58%

Substance: 33 (NFISGIQYL; Hepatitis C Virus) [Peptide 33]
- Healthy donors (n = 10) Positive n: 0
- HCV patients (n = 12) Positive n: 0
- Healthy donors (n = 10) Positive %: 0%
- HCV patients (n = 12) Positive %: 0%

Substance: 35 (AFTASITSPL; Hepatitis C Virus) [Peptide 35]
- Healthy donors (n = 10) Positive n: 0
- HCV patients (n = 12) Positive n: 0
- Healthy donors (n = 10) Positive %: 0%
- HCV patients (n = 12) Positive %: 0%

Substance: 36 (GYGAGVAGAL; Hepatitis C Virus) [Peptide 36]
- Healthy donors (n = 10) Positive n: 0
- HCV patients (n = 12) Positive n: 1
- Healthy donors (n = 10) Positive %: 0%
- HCV patients (n = 12) Positive %: 8%

Substance: 37 (DFKTWLQSKL; Hepatitis C Virus) [Peptide 37]
- Healthy donors (n = 10) Positive n: 0
- HCV patients (n = 12) Positive n: 1
- Healthy donors (n = 10) Positive %: 0%
- HCV patients (n = 12) Positive %: 8%

Substance: 38 (SFSIFLLALL; Hepatitis C Virus) [Peptide 38]
- Healthy donors (n = 10) Positive n: 0
- HCV patients (n = 12) Positive n: 7
- Healthy donors (n = 10) Positive %: 0%
- HCV patients (n = 12) Positive %: 58%

Substance: 40 (YLLPRRGPRL; Hepatitis C Virus) [Peptide 40]
- Healthy donors (n = 10) Positive n: 0
- HCV patients (n = 12) Positive n: 12
- Healthy donors (n = 10) Positive %: 0%
- HCV patients (n = 12) Positive %: 100%

Substance: 41 (SYTWTGALI; Hepatitis C Virus) [Peptide 41]
- Healthy donors (n = 10) Positive n: 0
- HCV patients (n = 12) Positive n: 0
- Healthy donors (n = 10) Positive %: 0%
- HCV patients (n = 12) Positive %: 0%

Substance: 42 (HYRDVLKEM; Hepatitis C Virus) [Peptide 42]
- Healthy donors (n = 10) Positive n: 0
- HCV patients (n = 12) Positive n: 1
- Healthy donors (n = 10) Positive %: 0%
- HCV patients (n = 12) Positive %: 8%

Substance: 43 (ILHTPGCV; Hepatitis C Virus) [Peptide 43]
- Healthy donors (n = 10) Positive n: 0
- HCV patients (n = 12) Positive n: 3
- Healthy donors (n = 10) Positive %: 0%
- HCV patients (n = 12) Positive %: 25%

Substance: 44 (WFMWCLLLL; Hepatitis C Virus) [Peptide 44]
- Healthy donors (n = 10) Positive n: 0
- HCV patients (n = 12) Positive n: 0
- Healthy donors (n = 10) Positive %: 0%
- HCV patients (n = 12) Positive %: 0%

Substance: 45 (SLLAPGAKQNV; Hepatitis C Virus) [Peptide 45]
- Healthy donors (n = 10) Positive n: 3
- HCV patients (n = 12) Positive n: 0
- Healthy donors (n = 10) Positive %: 30%
- HCV patients (n = 12) Positive %: 0%

Substance: 47 (LLCPAGHAV; Hepatitis C Virus) [Peptide 47]
- Healthy donors (n = 10) Positive n: 2
- HCV patients (n = 12) Positive n: 1
- Healthy donors (n = 10) Positive %: 20%
- HCV patients (n = 12) Positive %: 8%

Substance: 52 (ILAGYGAGV; Hepatitis C Virus) [Peptide 52]
- Healthy donors (n = 10) Positive n: 1
- HCV patients (n = 12) Positive n: 0
- Healthy donors (n = 10) Positive %: 10%
- HCV patients (n = 12) Positive %: 0%

Substance: 55 (GLQDCTMLV; Hepatitis C Virus) [Peptide 55]
- Healthy donors (n = 10) Positive n: 1
- HCV patients (n = 12) Positive n: 2
- Healthy donors (n = 10) Positive %: 10%
- HCV patients (n = 12) Positive %: 17%

Substance: 56 (ALAHGVRAL; Hepatitis C Virus) [Peptide 56]
- Healthy donors (n = 10) Positive n: 1
- HCV patients (n = 12) Positive n: 0
- Healthy donors (n = 10) Positive %: 10%
- HCV patients (n = 12) Positive %: 0%
